Consider one compound from patent US4923878A, “Quinolizine sulfonamides used against certain neoplastic disease states” (Merck & Co., Inc., priority 1988, dated 1990).

The subject of one test is A498. In words: MTT-microculture tetrazolium assay, growth inhibition of renal A498 cells. Type of test: cell-based. Particulars: Homo sapiens, 144 h; Renal cell line A498; 6 days at 37° C.; 0.5% DMSO. An excerpt: (§1) Tests carried out in accordance with the procedures described in Cancer Research 48, 589-601, February 1988, Feasibility of Drug Screening with Panels of Human Tumor Cell Lines Using a Microculture Tetrazolium Assay--Shoemaker et al., and Cancer Research 48, 4827-4833, September 1988, Evaluation of a Soluble Tetrazolium/Formazan Assay for Cell Growth and Drug Sensitivity in Culture using Human and other Tumor Cell Lines--Shoemaker et al. A brief description of this procedure follows. For further details refer to the above identified articles.
(§2) The procedure was carried out on cell lines from various disease types. Cell lines were maintained as stocks in RPMI 1640 (Quality Biological, Gaithersburg, Md.) supplemented with 10% fetal bovine serum (Sterile Systems, Logon, UT) and 2mM L-glutamine (Central Medium Laboratory, NCI FCRF). Cell cultures were passaged once or twice weekly using trypsin-EDTA(Central Medium Laboratory, NCI-FCRF) to detach the cells from their culture flasks. […]
(§3) Cellular growth in the presence or absence of the test compound was determined using the MTT-microculture tetrazolium assay. In the MTT assay rapidly growing cells are harvested, counted and inoculated at the appropriate concentrations (100-μl volume) into 96-well microtiter plates using a multichannel pipet. […]

For test [1], the system named is cell lines derived from renal carcinomas. In words: MTT-microculture tetrazolium assay, growth inhibition of cell lines derived from renal carcinomas. Type of test: cell-based, human. Particulars: at the indicated concentrations; 6 days at 37° C.
Excerpt: as §1, §2, §3

The subject of a further test is SN-12KI. In words: MTT-microculture tetrazolium assay, growth inhibition of renal SN-12KI cells. To be noted: Homo sapiens, 144 h; Renal cell line SN-12KI; 6 days at 37° C.; 0.5% DMSO. Type of test: cell-based.
Excerpt: as §1, §2, §3

The test system of a further test is A704. In words: MTT-microculture tetrazolium assay, growth inhibition of renal A704 cells. Type of test: cell-based. Particulars: Homo sapiens, 144 h; Renal cell line A704; 6 days at 37° C.; 0.5% DMSO.
Excerpt: as §1, §2, §3

Consider `CS(=O)(=O)NCCN[C@@H]1CCN2CCc3c(oc4ccccc34)[C@@H]2C1` (relative stereo) [(2RS,12bSR)-N-[2-(1,3,4,6,7,12b-hexahydro-2H-benzo[b]furo[2,3-a]quinolizin-2-yl)]-N-2-((methanesulfonyl)ethyl)amine], for which the IC50 in the test on A498 came to 1600 nM; in the test with SN-12KI, 6300 nM; in the test with A704 it was 160 nM. For the same compound, in test [1], the “growth inhibition of cell lines derived from renal carcinomas (in words)” value is listed as “selectively inhibit the growth of cell lines derived from renal carcinomas”.
